Where “and” joins values, the source holds several entries; their conditions need not be identical. Equal values may be shown once.
Tests used:
SHP1 = SHP1 (Homo sapiens, UniProt P29350); assay: SHP1 enzyme assay (DiFMUP fluorogenic substrate), activation; assay type: biochemical; conditions: DiFMUP assay; for EC50 / Maximum Activation Fold: mean ± SEM
Source text: The SHP1-activating effects of the synthetic compounds were examined by the 6,8-difluoro-4-methylumbelliferyl phosphate (DiFMUP) assay.
The proteins SHP1 and SHP2, containing a GST-tag, were expressed in E. coli. 6,8-Difluoro-4-methylumbelliferyl phosphate (DiFMUP) was used as the fluorogenic substrate. Fluorescence data were collected by the Envision (PerkinElmer, Waltham, MA, USA) plate reader, using excitation and emission wavelengths of 358 and 455 nm, respectively. A sigmoidal dose-response curve was fitted to the data, and the EC50 values were calculated using GraphPad Prism. In the data processing, the fitting and curves were calculated using nonlinear regression, and the fold value of the compound was calculated using the software GraphPad Prism 8. The folds were obtained according to the equation: Y = Bottom + (Top-Bottom)/(1 + 10^((LogEC50-X) × HillSlope)). The data represent mean values ± standard error of the mean (SEM) of eight-point experiments, each performed in triplicates from three independent experiments.

Sequence of SHP1 (P29350 whole entry): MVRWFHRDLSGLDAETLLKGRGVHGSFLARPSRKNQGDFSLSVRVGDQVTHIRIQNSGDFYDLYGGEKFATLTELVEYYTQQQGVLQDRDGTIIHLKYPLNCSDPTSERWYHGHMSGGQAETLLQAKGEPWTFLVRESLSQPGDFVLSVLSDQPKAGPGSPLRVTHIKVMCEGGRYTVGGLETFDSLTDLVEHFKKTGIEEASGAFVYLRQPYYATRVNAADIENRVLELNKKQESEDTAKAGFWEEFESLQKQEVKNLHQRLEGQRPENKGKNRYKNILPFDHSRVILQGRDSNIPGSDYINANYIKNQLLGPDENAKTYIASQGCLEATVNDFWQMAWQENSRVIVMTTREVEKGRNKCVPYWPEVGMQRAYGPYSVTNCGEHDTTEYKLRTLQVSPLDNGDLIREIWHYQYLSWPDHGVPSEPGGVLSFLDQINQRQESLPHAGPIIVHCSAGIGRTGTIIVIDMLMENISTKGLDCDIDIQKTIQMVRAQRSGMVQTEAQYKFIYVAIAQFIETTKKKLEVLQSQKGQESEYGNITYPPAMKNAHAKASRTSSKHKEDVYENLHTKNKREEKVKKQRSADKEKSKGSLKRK

| Compound | EC50 (SHP1) [µM] | Maximum Activation Fold (SHP1) | melting point [°C] | SHP1 activity (in words) (SHP1) |
| --- | --- | --- | --- | --- |
| C[C@H](CCCO)[C@H]1CCC2C3CC=C4C(C)(C)C(N)CC[C@]4(C)C3CC[C@@]21C (stereo partly drawn) [Compound 5aa] | 19.2 ± 4.59 | 6.03 ± 0.87 fold | 163.5 to 166.3 | – |
| C[C@H](CCCO)[C@H]1CCC2C3CC=C4C(C)(C)C(NCCO)CC[C@]4(C)C3CC[C@@]21C (stereo partly drawn) [Compound 5ab] | 39.1 ± 3.7 | – | 184.3 to 187.5 | – |
| C[C@H](CCCO)[C@H]1CCC2C3CC=C4C(C)(C)C(NCCCO)CC[C@]4(C)C3CC[C@@]21C (stereo partly drawn) [Compound 5ac] | 30.7 ± 3.8 | – | 183.5 to 186.8 | – |
| C[C@H](CCCO)[C@H]1CCC2C3CC=C4C(C)(C)C(NCCCCl)CC[C@]4(C)C3CC[C@@]21C (stereo partly drawn) [Compound 5ad] | 47.34 ± 0.34 | – | 162.7 to 165.5 | – |
| CCCNC1CC[C@@]2(C)C(=CCC3C2CC[C@@]2(C)C3CC[C@@H]2[C@H](C)CCCO)C1(C)C (stereo partly drawn) [Compound 5ae, (4R)-4-((10R,13R,17R)-4,4,10,13-tetramethyl-3-(propylamino)-tetradecahydro-1H-cyclopenta[a]phenanthren-17-yl)pentan-1-ol] | > 50 | – | 147.5 to 150.4 | – |
| C[C@H](CCCO)[C@H]1CCC2C3CC=C4C(C)(C)C(N5CCC5)CC[C@]4(C)C3CC[C@@]21C (stereo partly drawn) [Compound 5af] | > 50 | – | 174.9 to 177.6 | – |
| C[C@H](CCCO)[C@H]1CCC2C3C(=O)C=C4C(C)(C)C(N)CC[C@]4(C)C3CC[C@@]21C (stereo partly drawn) [Compound 5ag, (10R,13R,17R)-3-amino-17-((R)-5-hydroxypentan-2-yl)-4,4,10,13-tetramethyl-tetradecahydro-7H-cyclopenta[a]phenanthren-7-one] | 33.8 ± 2.93 | 1.84 ± 0.11 fold | 151.3 to 153.7 | – |
| C[C@H](CCCO)[C@H]1CCC2C3C(=NO)C=C4C(C)(C)C(N)CC[C@]4(C)C3CC[C@@]21C (stereo partly drawn) [Compound 5ah, (10R,13R,17R)-3-amino-17-((R)-5-hydroxypentan-2-yl)-4,4,10,13-tetramethyl-tetradecahydro-7H-cyclopenta[a]phenanthren-7-oxime] | 34.4 ± 2.47 | 2.13 ± 0.28 fold | 218.3 to 219.9 | – |
| C[C@H](CCCO)[C@H]1CCC2C3C(O)C=C4C(C)(C)C(N)CC[C@]4(C)C3CC[C@@]21C (stereo partly drawn) [Compound 5ai] | > 50 | – | 171.4 to 173.2 | – |
| C[C@H](CCCO)[C@H]1CCC2C3C(N)C=C4C(C)(C)C(N)CC[C@]4(C)C3CC[C@@]21C (stereo partly drawn) [Compound 5aj] | > 50 | – | 178.7 to 180.2 | – |
| C[C@H](CCCO)[C@H]1CCC2C3=CC=C4C(C)(C)C(N)CC[C@]4(C)C3CC[C@@]21C (stereo partly drawn) [Compound 5ak, (4R)-4-((10R,13R,17R)-3-amino-4,4,10,13-tetramethyl-2,3,4,9,10,11,12,13,14,15,16,17-dodecahydro-1H-cyclopenta[a]phenanthren-17-yl)pentan-1-ol] | 20 ± 3.34 | 7.74 fold and 7.74 ± 0.20 fold | 179.5 to 181.3 | – |
| CNC(=O)CC[C@@H](C)[C@H]1CCC2C3CC=C4C(C)(C)C(N)CC[C@]4(C)C3CC[C@@]21C (stereo partly drawn) [Compound 5al] | 40.5 ± 6.58 | 6.42 ± 0.28 fold | > 300 | – |
| CCCNCCC[C@@H](C)[C@H]1CCC2C3CC=C4C(C)(C)C(N)CC[C@]4(C)C3CC[C@@]21C (stereo partly drawn) [Compound 5am, (10R,13R,17R)-4,4,10,13-tetramethyl-17-((R)-5-(propylamino)pentan-2-yl)-tetradecahydro-1H-cyclopenta[a]phenanthren-3-amine] | > 50 | – | > 300 | – |
| CC(O)CC[C@@H](C)[C@H]1CCC2C3CC=C4C(C)(C)C(N)CC[C@]4(C)C3CC[C@@]21C (stereo partly drawn) [Compound 5an] | 17.6 ± 1.75 | 6.33 ± 0.01 fold | > 300 | – |
| CCC(O)CC[C@@H](C)[C@H]1CCC2C3CC=C4C(C)(C)C(N)CC[C@]4(C)C3CC[C@@]21C (stereo partly drawn) [Compound 5ao] | 15.5 ± 4.38 | 6.59 ± 0.48 fold | > 300 | – |
| CCCC(O)CC[C@@H](C)[C@H]1CCC2C3CC=C4C(C)(C)C(N)CC[C@]4(C)C3CC[C@@]21C (stereo partly drawn) [Compound 5ap] | 38.1 ± 3.76 | 6.65 ± 0.35 fold | > 300 | – |
| CC(C)C(O)CC[C@@H](C)[C@H]1CCC2C3CC=C4C(C)(C)C(N)CC[C@]4(C)C3CC[C@@]21C (stereo partly drawn) [Compound 5aq, (6R)-6-((10R,13R,17R)-3-amino-4,4,10,13-tetramethyl-tetradecahydro-1H-cyclopenta[a]phenanthren-17-yl)-2-methylheptan-3-ol] | 22.1 ± 3.73 | 6.32 ± 0.34 fold | > 300 | – |
| C=CCC(O)CC[C@@H](C)[C@H]1CCC2C3CC=C4C(C)(C)C(N)CC[C@]4(C)C3CC[C@@]21C (stereo partly drawn) [Compound 5ar, (7R)-7-((10R,13R,17R)-3-amino-4,4,10,13-tetramethyl-tetradecahydro-1H-cyclopenta[a]phenanthren-17-yl)oct-1-en-4-ol] | 12.9 ± 0.75 | 6.94 ± 0.17 fold | 250.4 to 252.6 | – |
| C[C@H](CCC(C)(C)O)[C@H]1CCC2C3CC=C4C(C)(C)C(N)CC[C@]4(C)C3CC[C@@]21C (stereo partly drawn) [Compound 5as, (5R)-5-((10R,13R,17R)-3-amino-4,4,10,13-tetramethyl-tetradecahydro-1H-cyclopenta[a]phenanthren-17-yl)-2-methylhexan-2-ol] | 22 ± 3.84 | 5.73 ± 0.32 fold | 215.2 to 217.6 | – |
| CCC(O)(CC)CC[C@@H](C)[C@H]1CCC2C3CC=C4C(C)(C)C(N)CC[C@]4(C)C3CC[C@@]21C (stereo partly drawn) [Compound 5at] | 12.9 ± 0.3 | 6.50 ± 0.12 fold | > 300 | – |
| CCCC(O)(CCC)CC[C@@H](C)[C@H]1CCC2C3CC=C4C(C)(C)C(N)CC[C@]4(C)C3CC[C@@]21C (stereo partly drawn) [Compound 5au] | 24.4 ± 3.61 | 6.42 ± 0.28 fold | 242.6 to 244.9 | – |
| C=CCC(O)(CC=C)CC[C@@H](C)[C@H]1CCC2C3CC=C4C(C)(C)C(N)CC[C@]4(C)C3CC[C@@]21C (stereo partly drawn) [Compound 5av, (7R)-4-allyl-7-((10R,13R,17R)-3-amino-4,4,10,13-tetramethyl-tetradecahydro-1H-cyclopenta[a]phenanthren-17-yl)oct-1-en-4-ol] | 35.8 ± 1.92 | 5.90 ± 0.42 fold | 235.5 to 237.4 | – |
| C[C@H](CO)[C@H]1CCC2C3CC=C4C(C)(C)C(N)CC[C@]4(C)C3CC[C@@]21C (stereo partly drawn) [Compound 5aw] | 35.5 ± 3.15 | – | 170.6 to 173.8 | – |
| C[C@H](CCCO)[C@H]1CCC2C3CC=C4C(C)(C)C(NC(=O)Nc5ccc(Cl)c(C(F)(F)F)c5)CC[C@]4(C)C3CC[C@@]21C (stereo partly drawn) [Compound 5ax, 1-(4-chloro-3-(trifluoromethyl)phenyl)-3-((10R,13R,17R)-17-((R)-5-hydroxypentan-2-yl)-4,4,10,13-tetramethyl-2,3,4,7,8,9,10,11,12,13,14,15,16,17-tetradecahydro-1H-cyclopenta[a]phenanthren-3-yl)urea] | > 50 | – | 221.1 to 223.7 | no activity |
| C[C@H](CCCOc1ccc(NC(=O)Nc2ccc(Cl)c(C(F)(F)F)c2)cc1)[C@H]1CCC2C3CC=C4C(C)(C)C(N)CC[C@]4(C)C3CC[C@@]21C (stereo partly drawn) [Compound 5ay] | 2.05 ± 0.14 | 5.54 ± 0.24 fold | 192.3 to 194.5 | – |
